Data on 21 compounds can be found in patent US20250382297A1, “INHIBITORS OF FGFR2 AND FGFR3 AND USES THEREOF” (Insilico Medicine IP Limited, priority 2022, published 2025).

Where two headings read alike, the source gives them in different places. Bounds are passed on as bounds.

The target in one test is FGFR1 (Homo sapiens (Human), UniProt P11362). Briefly: FGFR biochemical assay (LanthaScreen TR-FRET kinase assay), FGFR1. On the technique in general: TR-FRET usually uses a lanthanide donor and a delayed reading to cut background.
FGFR1, sequence (P11362 22-822): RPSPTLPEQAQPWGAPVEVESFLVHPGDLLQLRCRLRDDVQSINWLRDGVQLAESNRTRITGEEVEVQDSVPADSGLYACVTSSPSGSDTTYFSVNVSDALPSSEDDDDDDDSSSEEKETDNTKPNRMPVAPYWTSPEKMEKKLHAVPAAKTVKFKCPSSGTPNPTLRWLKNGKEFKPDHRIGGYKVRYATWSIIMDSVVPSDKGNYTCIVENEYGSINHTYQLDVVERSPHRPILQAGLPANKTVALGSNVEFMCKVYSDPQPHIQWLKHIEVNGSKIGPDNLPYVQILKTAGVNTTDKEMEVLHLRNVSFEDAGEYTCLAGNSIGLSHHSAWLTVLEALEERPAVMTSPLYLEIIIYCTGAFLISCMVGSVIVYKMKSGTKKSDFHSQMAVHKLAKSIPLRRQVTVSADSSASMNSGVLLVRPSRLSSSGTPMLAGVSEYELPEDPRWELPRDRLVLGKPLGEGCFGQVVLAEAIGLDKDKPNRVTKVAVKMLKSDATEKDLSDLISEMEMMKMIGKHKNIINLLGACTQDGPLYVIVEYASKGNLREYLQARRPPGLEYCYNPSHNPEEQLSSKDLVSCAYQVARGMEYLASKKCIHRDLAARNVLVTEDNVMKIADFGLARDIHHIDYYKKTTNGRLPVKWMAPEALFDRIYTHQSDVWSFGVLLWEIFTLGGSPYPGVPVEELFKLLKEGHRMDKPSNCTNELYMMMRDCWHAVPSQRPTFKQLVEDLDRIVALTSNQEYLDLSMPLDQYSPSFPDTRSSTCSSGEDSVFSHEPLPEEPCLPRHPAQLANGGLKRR
The target of a further test is FGFR2 (Homo sapiens (Human), UniProt P21802). Briefly: FGFR biochemical assay (LanthaScreen TR-FRET kinase assay), FGFR2.
FGFR2, sequence (P21802 22-821): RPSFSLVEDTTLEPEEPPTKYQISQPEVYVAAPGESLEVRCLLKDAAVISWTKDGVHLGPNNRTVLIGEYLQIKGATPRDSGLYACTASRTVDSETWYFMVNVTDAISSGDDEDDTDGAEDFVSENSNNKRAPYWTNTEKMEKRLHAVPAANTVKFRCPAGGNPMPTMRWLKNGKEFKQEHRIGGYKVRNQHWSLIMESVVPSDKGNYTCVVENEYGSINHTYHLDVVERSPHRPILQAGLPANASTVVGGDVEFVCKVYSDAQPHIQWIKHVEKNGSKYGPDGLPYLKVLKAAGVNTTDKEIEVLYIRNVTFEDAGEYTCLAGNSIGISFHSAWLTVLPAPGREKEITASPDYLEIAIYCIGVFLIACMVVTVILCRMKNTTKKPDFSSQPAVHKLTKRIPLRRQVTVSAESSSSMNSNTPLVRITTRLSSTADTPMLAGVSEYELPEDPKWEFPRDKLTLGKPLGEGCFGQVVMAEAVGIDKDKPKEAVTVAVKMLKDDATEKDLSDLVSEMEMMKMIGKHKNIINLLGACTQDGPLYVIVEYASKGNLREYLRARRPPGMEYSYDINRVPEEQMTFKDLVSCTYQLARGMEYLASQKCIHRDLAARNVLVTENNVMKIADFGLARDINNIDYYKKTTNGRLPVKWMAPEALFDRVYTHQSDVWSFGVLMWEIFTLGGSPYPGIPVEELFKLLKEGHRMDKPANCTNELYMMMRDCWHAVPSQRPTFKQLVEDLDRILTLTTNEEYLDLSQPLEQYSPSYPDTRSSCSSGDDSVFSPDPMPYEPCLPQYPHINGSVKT
Another test has as its target FGFR3 (Homo sapiens (Human), UniProt P22607). Briefly: FGFR biochemical assay (LanthaScreen TR-FRET kinase assay), FGFR3.
Setting [1] is: read-out: FGFR1 IC50, * incubation at room temperature for 60 minutes before addition of substrate solution, ATP 28 μM, FGFR1 0.01 nM.
Where [2] appears, read: read-out: FGFR2 IC50, * incubation at room temperature for 60 minutes before addition of substrate solution, ATP 22 μM, FGFR2 0.01 nM.
Where [3] appears, read: read-out: FGFR1 IC50, incubation with enzyme at room temperature for 10 minutes before substrate, ATP 28 μM, FGFR1 0.01 nM.
[4] abbreviates: read-out: FGFR2 IC50, incubation with enzyme at room temperature for 10 minutes before substrate, ATP 22 μM, FGFR2 0.01 nM.
Setting [5] is: read-out: FGFR3 IC50, * incubation at room temperature for 60 minutes before addition of substrate solution, ATP 35 μM, FGFR3 0.1 nM.

For orientation: IC50 means the midpoint of a concentration-inhibition curve.

FGFR3, sequence (P22607 23-806): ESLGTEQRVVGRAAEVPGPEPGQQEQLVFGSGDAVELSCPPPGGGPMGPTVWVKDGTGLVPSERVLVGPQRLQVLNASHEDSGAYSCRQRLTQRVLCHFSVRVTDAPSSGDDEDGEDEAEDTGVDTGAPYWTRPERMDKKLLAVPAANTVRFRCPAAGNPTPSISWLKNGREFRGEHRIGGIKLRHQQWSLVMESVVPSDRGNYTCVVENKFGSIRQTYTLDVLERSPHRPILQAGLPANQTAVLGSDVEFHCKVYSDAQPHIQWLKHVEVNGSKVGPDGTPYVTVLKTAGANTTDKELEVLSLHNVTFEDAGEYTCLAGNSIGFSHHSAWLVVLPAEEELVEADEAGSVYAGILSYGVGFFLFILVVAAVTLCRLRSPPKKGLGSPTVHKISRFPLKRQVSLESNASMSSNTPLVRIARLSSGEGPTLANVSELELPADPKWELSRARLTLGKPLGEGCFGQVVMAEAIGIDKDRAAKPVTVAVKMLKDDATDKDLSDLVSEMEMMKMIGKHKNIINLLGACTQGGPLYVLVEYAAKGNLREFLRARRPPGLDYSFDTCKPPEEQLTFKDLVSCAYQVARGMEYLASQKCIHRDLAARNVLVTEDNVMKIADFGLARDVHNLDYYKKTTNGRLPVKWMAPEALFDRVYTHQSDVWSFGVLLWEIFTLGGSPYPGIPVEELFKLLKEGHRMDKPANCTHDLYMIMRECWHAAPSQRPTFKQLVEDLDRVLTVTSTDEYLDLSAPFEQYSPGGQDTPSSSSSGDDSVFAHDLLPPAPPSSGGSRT
Description for FGFR1: (§1) Convert Ratio values to percent inhibition values (Percent inhibition=(max−sample Ratio)/(max−min)*100) where “min” means the Ratio of no enzyme control and “max” means the Ratio of DMSO control. • Data are analyzed and curve fitting is performed by XLFit Excel add-in version 5.4.0.8. The IC50 calculation equation is: Y=Bottom+(Top-Bottom)/(1+ (IC50/X)^HillSlope.
Description for FGFR2: as §1
Description for FGFR3: as §1

On to `C=C(F)C(=O)Nc1ccc(-c2c(-c3cccc(C(=O)NC)c3)c(C(N)=O)c3cnc(C)cn23)c(F)c1` [Example 75, 6-(2-fluoro-4-(2-fluoroacrylamido)phenyl)-3-methyl-7-(3-(methylcarbamoyl)phenyl)pyrrolo[1,2-a]pyrazine-8-carboxamide], for which the IC50 against FGFR1, at FGFR2 and against FGFR3 was 100 to 1000 nM throughout.
With `C=C(F)C(=O)N1CCCc2cc(-c3c(-c4ccc(Oc5nccc(C)n5)c(F)c4)c(C(N)=O)c4cnc(C)cn34)c(F)cc21` [Example 98, 6-(7-fluoro-1-(2-fluoroacryloyl)-1,2,3,4-tetrahydroquinolin-6-yl)-7-(3-fluoro-4-((4-methylpyrimidin-2-yl)oxy)phenyl)-3-methylpyrrolo[1,2-a]pyrazine-8-carboxamide], the IC50 at FGFR1 (setting [1]) is greater than 1000 nM; at FGFR2, 100 to 1000 nM; against FGFR3 it was 100 to 1000 nM.
As to `C=C(F)C(=O)Nc1ccc(-c2c(-c3ccc(Oc4nccc(C)n4)cc3)c(C(N)=O)c3cnc(NC(C)=O)cn23)cc1` [Example 83, 3-acetamido-6-(4-(2-fluoroacrylamido)phenyl)-7-(4-((4-methylpyrimidin-2-yl)oxy)phenyl)pyrrolo[1,2-a]pyrazine-8-carboxamide], the IC50 against FGFR1 was 100 to 1000 nM; on FGFR2 (setting [2]), less than 10 nM; on FGFR3 it was 10 to 100 nM.
On to `C=C(F)C(=O)N1CCc2cc(-c3c(-c4ccc(Oc5nccc(C)n5)c(F)c4)c(C(N)=O)c4ccc(C)nn34)ccc21` [Example 95, 6-(3-fluoro-4-((4-methylpyrimidin-2-yl)oxy)phenyl)-7-(1-(2-fluoroacryloyl)indolin-5-yl)-2-methylpyrrolo[1,2-b]pyridazine-5-carboxamide], for which the figures for the IC50 on FGFR1 (setting [1]), at FGFR2 and on FGFR3 were greater than 1000 nM, 10 to 100 nM and 100 to 1000 nM, respectively.
Consider `C=CC(=O)Nc1ccc(-c2c(-c3ccc(OC)cc3)c(C(N)=O)c3cnccn23)cc1` [Example 22, 6-(4-acrylamidophenyl)-7-(4-methoxyphenyl)pyrrolo[1,2-a]pyrazine-8-carboxamide], for which the IC50 was in the range of 100 to 1000 nM at FGFR1, 10 to 100 nM against FGFR2 and 100 to 1000 nM on FGFR3.
For `C=C(F)C(=O)Nc1ccc(-c2c(-c3ccc(Oc4nccc(C)n4)c(F)c3)c(C(N)=O)c3ccccn23)cc1` [Example 107, 2-(3-fluoro-4-((4-methylpyrimidin-2-yl)oxy)phenyl)-3-(4-(2-fluoroacrylamido)phenyl) indolizine-1-carboxamide], the IC50 lay within 100 to 1000 nM against FGFR1 and 10 to 100 nM against FGFR3.
Turning to `C=CC(=O)Nc1ccc(-c2c(-c3ccc(Oc4cccc(C)n4)cc3)c(C(N)=O)c3cnc(C#N)cn23)cc1` [Example 77, 6-(4-acrylamidophenyl)-3-cyano-7-(4-((6-methylpyridin-2-yl)oxy)phenyl)pyrrolo[1,2-a]pyrazine-8-carboxamide], the values for the IC50 on FGFR1 (setting [3]), at FGFR2 and against FGFR3 were greater than 1000 nM, 10 to 100 nM and 100 to 1000 nM, respectively.
For `C=CC(=O)N1CC2(CC=C(c3c(-c4ccc(Oc5nccc(C)n5)cc4)c(C(N)=O)c4cnc(C)cn34)CC2)C1` [Example 70, 6-(2-acryloyl-2-azaspiro[3.5]non-6-en-7-yl)-3-methyl-7-(4-((4-methylpyrimidin-2-yl)oxy)phenyl)pyrrolo[1,2-a]pyrazine-8-carboxamide], the IC50 against FGFR1, against FGFR2 and on FGFR3 was 100 to 1000 nM each time.
Take `C=CC(=O)Nc1ccc(-c2c(-c3ccc(Oc4cccc(C)n4)cc3)c(C(N)=O)c3ccnc(C)n23)cc1` [Example 84, 7-(4-acrylamidophenyl)-1-methyl-6-(4-((6-methylpyridin-2-yl)oxy)phenyl)pyrrolo[1,2-c]pyrimidine-5-carboxamide]: the IC50 against FGFR1 was 100 to 1000 nM; at FGFR2 (setting [4]) it was less than 10 nM; against FGFR3, 10 to 100 nM.
On to `C=C(F)C(=O)N1CCc2c1ccc(-c1c(-c3ccc(Oc4nccc(C)n4)c(F)c3)c(C(N)=O)c3cnc(C)cn13)c2F` [Example 99, 6-(4-fluoro-1-(2-fluoroacryloyl)indolin-5-yl)-7-(3-fluoro-4-((4-methylpyrimidin-2-yl)oxy)phenyl)-3-methylpyrrolo[1,2-a]pyrazine-8-carboxamide], for which the IC50 at FGFR1 was 10 to 100 nM; on FGFR2 (setting [2]), less than 10 nM; at FGFR3 (setting [5]) it was less than 10 nM.
As to `C=CC(=O)Nc1ccc(-c2c(-c3ccc(Oc4cccc(C)n4)cc3)c(C(N)=O)c3cnc(OC)cn23)cc1` [Example 17, 6-(4-acrylamidophenyl)-3-methoxy-7-(4-((6-methylpyridin-2-yl)oxy)phenyl)pyrrolo[1,2-a]pyrazine-8-carboxamide], the IC50 on FGFR1 is 10 to 100 nM; on FGFR2 (setting [4]), less than 10 nM; against FGFR3, 10 to 100 nM.
For the compound `C=C(F)C(=O)N1CCc2cc(-c3c(-c4ccc(Oc5nccc(C)n5)c(F)c4)c(C(N)=O)c4cnc(C)cn34)c(C)cc21` [Example 97, 7-(3-fluoro-4-((4-methylpyrimidin-2-yl)oxy)phenyl)-6-(1-(2-fluoroacryloyl)-6-methylindolin-5-yl)-3-methylpyrrolo[1,2-a]pyrazine-8-carboxamide], the IC50 at FGFR1 was 10 to 100 nM; at FGFR2 (setting [2]), less than 10 nM; at FGFR3 (setting [5]), less than 10 nM.
Regarding `C=C(F)C(=O)Nc1ccc(-c2c(-c3ccc(Oc4nc(C)cc(C)n4)c(F)c3)c(C(N)=O)c3cnc(C)cn23)cc1` [Example 53, 7-(4-((4,6-dimethylpyrimidin-2-yl)oxy)-3-fluorophenyl)-6-(4-(2-fluoroacrylamido)phenyl)-3-methylpyrrolo[1,2-a]pyrazine-8-carboxamide], the 50% inhibitory concentration (IC50) at FGFR1 (setting [1]) is greater than 1000 nM; against FGFR2 it was 10 to 100 nM; on FGFR3, 100 to 1000 nM.
With `C=C(F)C(=O)Nc1ccc(-c2c(-c3ccc(Oc4nccc(C)n4)c(F)c3)c(C(N)=O)c3cc(-c4cnn(C)c4)ncn23)c(F)c1` [Example 91, 6-(3-fluoro-4-((4-methylpyrimidin-2-yl)oxy)phenyl)-7-(2-fluoro-4-(2-fluoroacrylamido)phenyl)-3-(1-methyl-1H-pyrazol-4-yl)pyrrolo[1,2-c]pyrimidine-5-carboxamide], the values for the IC50 against FGFR1, on FGFR2 (setting [2]) and at FGFR3 (setting [5]) were 10 to 100 nM, less than 10 nM and less than 10 nM, respectively.
Take `C=CC(=O)Nc1ccc(-c2c(-c3ccc(Oc4nccc(C)n4)c(F)c3)c(C(N)=O)c3cnccn23)cc1` [Example 33, 6-(4-acrylamidophenyl)-7-(3-fluoro-4-((4-methylpyrimidin-2-yl)oxy)phenyl)pyrrolo[1,2-a]pyrazine-8-carboxamide]: the values for the IC50 against FGFR1, at FGFR2 (setting [4]) and against FGFR3 were 10 to 100 nM, less than 10 nM and 10 to 100 nM, respectively.
`C=CC(=O)Nc1ccc(-c2c(-c3ccc(Oc4cccc(C)n4)c(OC)c3)c(C(N)=O)c3cnccn23)cc1` [Example 25, 6-(4-acrylamidophenyl)-7-(3-methoxy-4-((6-methylpyridin-2-yl)oxy)phenyl)pyrrolo[1,2-a]pyrazine-8-carboxamide]: the values for the IC50 against FGFR1, at FGFR2 (setting [4]) and against FGFR3 were 100 to 1000 nM, less than 10 nM and 10 to 100 nM, respectively.
For `C=C(F)C(=O)Nc1ccc(-c2c(-c3ccc(Oc4nccc(C)n4)c(F)c3)c(C(N)=O)c3cc(-c4cnn(C)c4)ncn23)cc1` [Example 86, 6-(3-fluoro-4-((4-methylpyrimidin-2-yl)oxy)phenyl)-7-(4-(2-fluoroacrylamido)phenyl)-3-(1-methyl-1H-pyrazol-4-yl)pyrrolo[1,2-c]pyrimidine-5-carboxamide], the IC50 is 10 to 100 nM on FGFR1, less than 10 nM at FGFR2 (setting [2]) and 10 to 100 nM on FGFR3.
Take `Cc1cn2c(-c3ccc(NC(=O)/C=C/CN(C)C)nc3)c(-c3ccc(Oc4cccc(C)n4)cc3)c(C(N)=O)c2cn1` [Example 10, (E)-6-(6-(4-(dimethylamino)but-2-enamido)pyridin-3-yl)-3-methyl-7-(4-((6-methylpyridin-2-yl)oxy)phenyl)pyrrolo[1,2-a]pyrazine-8-carboxamide]: the half-inhibitory concentration (IC50) against FGFR1 is 10 to 100 nM; on FGFR2 (setting [4]), less than 10 nM; against FGFR3, 10 to 100 nM.
For the compound `C=C(F)C(=O)Nc1ccc(-c2c(-c3ccc(Oc4nccc(C)n4)c(F)c3)c(C(N)=O)c3cncnn23)cc1` [Example 108, 6-(3-fluoro-4-((4-methylpyrimidin-2-yl)oxy)phenyl)-7-(4-(2-fluoroacrylamido)phenyl)pyrrolo[2,1-f][1,2,4]triazine-5-carboxamide], the IC50 on FGFR1 (setting [1]) was greater than 1000 nM; against FGFR2 it was 10 to 100 nM; at FGFR3, 100 to 1000 nM.
Regarding `CC#CC(=O)Nc1ccc(-c2c(-c3ccc(C(=O)NCC4(F)COC4)cc3)c(C(N)=O)c3cnc(C)cn23)cc1` [Example 65, 6-(4-(but-2-ynamido)phenyl)-7-(4-(((3-fluorooxetan-3-yl)methyl)carbamoyl)phenyl)-3-methylpyrrolo[1,2-a]pyrazine-8-carboxamide], the IC50 against FGFR1 was in the range of 100 to 1000 nM; against FGFR2 it was 10 to 100 nM; against FGFR3, 100 to 1000 nM.
Regarding `C=C(F)C(=O)Nc1ccc(-c2c(-c3ccc(Oc4cc(C)ccn4)cc3)c(C(N)=O)c3cnc(C)cn23)cc1` [Example 52], the IC50 on FGFR1 (setting [3]) is greater than 1000 nM; on FGFR2, 100 to 1000 nM; on FGFR3 (read-out: FGFR3 IC50, incubation with enzyme at room temperature for 10 minutes before substrate, ATP 35 μM, FGFR3 0.1 nM), greater than 1000 nM.
